What was measured:
p70S6K = p70S6K (Homo sapiens, UniProt P23443); assay: Luciferase-coupled chemiluminescence kinase assay (ATP consumption); type: biochemical
Outline: (§1)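 Enzyme at 2.5-5 nM was preincubated 30 min at room temperature with compound in Tris pH 7.5, MgCl2, TX-100, DTT, then reacted with ATP for 3 h at ambient temperature. Remaining ATP was quantified by luciferase-luciferin chemiluminescence, with consumption kept at 25-60%; […].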

AktK = AktK (Homo sapiens, UniProt P31749); assay: as above; type: biochemical; details: read-out: AKT-1 IC50
Outline: as §1

Sequence of AktK (P31749 whole entry): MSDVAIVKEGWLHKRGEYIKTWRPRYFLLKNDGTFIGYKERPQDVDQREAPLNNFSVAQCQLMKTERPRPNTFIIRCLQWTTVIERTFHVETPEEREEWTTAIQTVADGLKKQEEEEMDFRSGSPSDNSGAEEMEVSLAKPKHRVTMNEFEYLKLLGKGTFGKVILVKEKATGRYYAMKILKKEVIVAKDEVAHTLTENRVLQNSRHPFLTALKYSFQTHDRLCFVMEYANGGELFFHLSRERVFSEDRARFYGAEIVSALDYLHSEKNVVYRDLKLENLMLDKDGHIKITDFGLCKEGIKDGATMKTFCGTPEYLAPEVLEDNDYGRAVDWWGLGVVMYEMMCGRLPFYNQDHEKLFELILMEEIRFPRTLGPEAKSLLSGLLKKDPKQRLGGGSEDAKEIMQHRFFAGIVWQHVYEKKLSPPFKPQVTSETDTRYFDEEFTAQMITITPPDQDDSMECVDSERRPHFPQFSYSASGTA
Sequence of p70S6K (P23443 whole entry): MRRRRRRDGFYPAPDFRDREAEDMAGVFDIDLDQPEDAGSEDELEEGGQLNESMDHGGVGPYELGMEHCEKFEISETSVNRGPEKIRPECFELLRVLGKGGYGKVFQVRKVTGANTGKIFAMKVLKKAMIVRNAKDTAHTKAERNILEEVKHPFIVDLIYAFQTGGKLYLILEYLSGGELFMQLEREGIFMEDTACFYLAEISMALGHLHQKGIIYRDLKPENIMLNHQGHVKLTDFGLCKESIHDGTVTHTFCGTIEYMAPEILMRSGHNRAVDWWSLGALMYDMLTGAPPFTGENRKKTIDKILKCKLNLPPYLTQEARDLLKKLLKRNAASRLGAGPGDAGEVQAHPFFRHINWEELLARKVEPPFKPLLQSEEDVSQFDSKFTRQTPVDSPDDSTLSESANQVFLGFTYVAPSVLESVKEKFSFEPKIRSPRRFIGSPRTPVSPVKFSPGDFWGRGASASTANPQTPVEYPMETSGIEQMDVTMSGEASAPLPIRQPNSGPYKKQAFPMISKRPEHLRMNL

Work on `COc1ccc(N2CCN(c3ncnc4[nH]cnc34)CC2)cc1` [Entry 306, 6-{4-[4-(methyloxy)phenyl]piperazin-1-yl}-9H-purine] yielded an IC50 (p70S6K) of 1000 to 10000 nM and an IC50 (AktK) of no less than 10000 nM.

In the case of `COc1ccccc1N1CCN(c2ncnc3[nH]cnc23)CC1` [Entry 307, 6-{4-[2-(methyloxy)phenyl]piperazin-1-yl}-9H-purine], the IC50 (p70S6K) is reported as 100 to 1000 nM and the IC50 (AktK) is reported as no less than 10000 nM.

Molecule `Clc1ccc(N2CCN(c3ncnc4[nH]cnc34)CC2)cc1` [Entry 308, 6-[4-(4-chlorophenyl)piperazin-1-yl]-9H-purine] has an IC50 (p70S6K) of 1000 to 10000 nM and an IC50 (AktK) of no less than 10000 nM.

`Fc1ccc(N2CCN(c3ncnc4[nH]cnc34)CC2)cc1` [Entry 309, 6-[4-(4-fluorophenyl)piperazin-1-yl]-9H-purine] gave an IC50 (p70S6K) of 1000 to 10000 nM and an IC50 (AktK) of no less than 10000 nM.

In the case of `Clc1ccc(N2CCN(c3ncnc4[nH]ccc34)CC2)cc1` [Entry 310, 4-[4-(4-chlorophenyl)piperazin-1-yl]-7H-pyrrolo[2,3-d]pyrimidine], the IC50 (p70S6K) is reported as 1000 to 10000 nM and the IC50 (AktK) is reported as no less than 10000 nM.

`Clc1ccccc1N1CCN(c2ncnc3[nH]ccc23)CC1` [Entry 311, 4-[4-(2-chlorophenyl)piperazin-1-yl]-7H-pyrrolo[2,3-d]pyrimidine] showed an IC50 (p70S6K) of 100 to 1000 nM and an IC50 (AktK) of no less than 10000 nM.

With `Fc1ccc(N2CCN(c3ncnc4[nH]ccc34)CC2)cc1` [Entry 312, 4-[4-(4-fluorophenyl)piperazin-1-yl]-7H-pyrrolo[2,3-d]pyrimidine] the IC50 (p70S6K) was 100 to 1000 nM and the IC50 (AktK) was no less than 10000 nM.

Molecule `Fc1ccccc1N1CCN(c2ncnc3[nH]ccc23)CC1` [Entry 313, 4-[4-(2-fluorophenyl)piperazin-1-yl]-7H-pyrrolo[2,3-d]pyrimidine] has an IC50 (p70S6K) of 100 to 1000 nM and an IC50 (AktK) of no less than 10000 nM.

`FC(F)(F)c1cccc(N2CCN(c3ncnc4[nH]cnc34)CC2)c1` [Entry 314, 6-{4-[3-(trifluoromethyl)phenyl]piperazin-1-yl}-9H-purine] was tested, and the IC50 (p70S6K) was 100 to 1000 nM and the IC50 (AktK) was no less than 10000 nM.

Molecule `Cc1ccccc1N1CCN(c2ncnc3[nH]cnc23)CC1` [Entry 315, 6-[4-(2-methylphenyl)piperazin-1-yl]-9H-purine] has an IC50 (p70S6K) of 100 to 1000 nM and an IC50 (AktK) of no less than 10000 nM.

`FC(F)(F)c1cccc(N2CCN(c3ncnc4[nH]ncc34)CC2)c1` [Entry 316, 4-{4-[3-(trifluoromethyl)phenyl]piperazin-1-yl}-1H-pyrazolo[3,4-d]pyrimidine] gave an IC50 (p70S6K) of less than 100 nM and an IC50 (AktK) of no less than 10000 nM.

Molecule `Cc1ccccc1N1CCN(c2ncnc3[nH]ncc23)CC1` [Entry 317, 4-[4-(2-methylphenyl)piperazin-1-yl]-1H-pyrazolo[3,4-d]pyrimidine] has an IC50 (p70S6K) of 100 to 1000 nM and an IC50 (AktK) of no less than 10000 nM.

In the case of `Cc1n[nH]c2ncnc(N3CCN(c4cccc(Cl)c4)CC3)c12` [Entry 318, 4-[4-(3-chlorophenyl)piperazin-1-yl]-3-methyl-1H-pyrazolo[3,4-d]pyrimidine], the IC50 (p70S6K) is reported as less than 100 nM and the IC50 (AktK) is reported as no less than 10000 nM.

In the case of `Cc1ccc(Cl)cc1N1CCN(c2ncnc3[nH]ncc23)CC1` [Entry 320, 4-[4-(5-chloro-2-methylphenyl)piperazin-1-yl]-1H-pyrazolo[3,4-d]pyrimidine], the IC50 (p70S6K) is reported as less than 100 nM and the IC50 (AktK) is reported as 1000 to 10000 nM.

For `Cc1ccc(Cl)cc1N1CCN(c2ncnc3[nH]nc(C)c23)CC1` [Entry 321, 4-[4-(5-chloro-2-methylphenyl)piperazin-1-yl]-3-methyl-1H-pyrazolo[3,4-d]pyrimidine], the IC50 (p70S6K) was less than 100 nM and the IC50 (AktK) was 1000 to 10000 nM.

Work on `Cc1ccc(Cl)cc1N1CCN(c2nc(-c3ccccc3)nc3[nH]nc(C)c23)CC1` [Entry 322, 4-[4-(5-chloro-2-methylphenyl)piperazin-1-yl]-3-methyl-6-phenyl-1H-pyrazolo[3,4-d]pyrimidine] yielded an IC50 (p70S6K) of 1000 to 10000 nM and an IC50 (AktK) of 1000 to 10000 nM.

`CCc1n[nH]c2ncnc(N3CCN(c4cc(Cl)ccc4C)CC3)c12` [Entry 323, 4-[4-(5-chloro-2-methylphenyl)piperazin-1-yl]-3-ethyl-1H-pyrazolo[3,4-d]pyrimidine] was tested, and the IC50 (p70S6K) was less than 100 nM and the IC50 (AktK) was 1000 to 10000 nM.

Molecule `Cc1nc(N2CCN(c3cc(Cl)ccc3C)CC2)c2cn[nH]c2n1` [Entry 324, 4-[4-(5-chloro-2-methylphenyl)piperazin-1-yl]-6-methyl-1H-pyrazolo[3,4-d]pyrimidine] has an IC50 (p70S6K) of 1000 to 10000 nM and an IC50 (AktK) of 1000 to 10000 nM.

`CCc1nc(N2CCN(c3cc(Cl)ccc3C)CC2)c2cn[nH]c2n1` [Entry 325, 4-[4-(5-chloro-2-methylphenyl)piperazin-1-yl]-6-ethyl-1H-pyrazolo[3,4-d]pyrimidine] showed an IC50 (p70S6K) of 1000 to 10000 nM and an IC50 (AktK) of 1000 to 10000 nM.

`Cc1ccc(Cl)cc1N1CCN(c2nc(C(C)C)nc3[nH]ncc23)CC1` [Entry 326, 4-[4-(5-chloro-2-methylphenyl)piperazin-1-yl]-6-(1-methylethyl)-1H-pyrazolo[3,4-d]pyrimidine] was tested, and the IC50 (p70S6K) was 1000 to 10000 nM and the IC50 (AktK) was 1000 to 10000 nM.

In the case of `Cc1ccc(Cl)cc1N1CCN(c2ncnc3[nH]nc(-c4ccccc4)c23)CC1` [Entry 327, 4-[4-(5-chloro-2-methylphenyl)piperazin-1-yl]-3-phenyl-1H-pyrazolo[3,4-d]pyrimidine], the IC50 (p70S6K) is reported as less than 100 nM and the IC50 (AktK) is reported as 1000 to 10000 nM.

`COCCOCc1n[nH]c2ncnc(N3CCN(c4cc(Cl)ccc4C)CC3)c12` [Entry 328, 4-[4-(5-chloro-2-methylphenyl)piperazin-1-yl]-3-({[2-(methyloxy)ethyl]oxy}methyl)-1H-pyrazolo[3,4-d]pyrimidine] gave an IC50 (p70S6K) of less than 100 nM and an IC50 (AktK) of 1000 to 10000 nM.

For `Cc1ccc(Cl)cc1N1CCN(c2ncnc3[nH]nc(Br)c23)CC1` [Entry 329, 3-bromo-4-[4-(5-chloro-2-methylphenyl)piperazin-1-yl]-1H-pyrazolo[3,4-d]pyrimidine], the IC50 (p70S6K) was less than 100 nM and the IC50 (AktK) was 100 to 1000 nM.

In the case of `CCCc1n[nH]c2ncnc(N3CCN(c4cc(Cl)ccc4C)CC3)c12` [Entry 330, 4-[4-(5-chloro-2-methylphenyl)piperazin-1-yl]-3-propyl-1H-pyrazolo[3,4-d]pyrimidine], the IC50 (p70S6K) is reported as less than 100 nM and the IC50 (AktK) is reported as 1000 to 10000 nM.

In the case of `Cc1ccc(Cl)cc1N1CCN(c2ncnc3[nH]nc(-c4ccc(O)cc4)c23)CC1` [Entry 331, 4-{4-[4-(5-chloro-2-methylphenyl)piperazin-1-yl]-1H-pyrazolo[3,4-d]pyrimidin-3-yl}phenol], the IC50 (p70S6K) is reported as less than 100 nM and the IC50 (AktK) is reported as 1000 to 10000 nM.

`Cc1ccc(Cl)cc1N1CCN(c2ncnc3[nH]nc(Nc4ccccc4)c23)CC1` [Entry 332, 4-[4-(5-chloro-2-methylphenyl)piperazin-1-yl]-N-phenyl-1H-pyrazolo[3,4-d]pyrimidin-3-amine] gave an IC50 (p70S6K) of 1000 to 10000 nM and an IC50 (AktK) of 1000 to 10000 nM.

`CCc1n[nH]c2ncnc(N3CCN(c4cccc(Cl)c4)CC3)c12` [Entry 333, 4-[4-(3-chlorophenyl)piperazin-1-yl]-3-ethyl-1H-pyrazolo[3,4-d]pyrimidine] showed an IC50 (p70S6K) of less than 100 nM and an IC50 (AktK) of 1000 to 10000 nM.

For `CCc1n[nH]c2ncnc(N3CCN(c4cc(Cl)ccc4OC)CC3)c12` [Entry 334, 4-{4-[5-chloro-2-(methyloxy)phenyl]piperazin-1-yl}-3-ethyl-1H-pyrazolo[3,4-d]pyrimidine], the IC50 (p70S6K) was less than 100 nM and the IC50 (AktK) was 1000 to 10000 nM.

`Cc1ccc(Cl)cc1N1CCN(c2ncnc3[nH]nc(-c4cccc(O)c4)c23)CC1` [Entry 335, 3-{4-[4-(5-chloro-2-methylphenyl)piperazin-1-yl]-1H-pyrazolo[3,4-d]pyrimidin-3-yl}phenol] was tested, and the IC50 (p70S6K) was 100 to 1000 nM and the IC50 (AktK) was 1000 to 10000 nM.

With `Cc1ccc(Cl)cc1N1CCN(c2ncnc3[nH]nc(-c4cccc(OCc5ccccc5)c4)c23)CC1` [Entry 336, 4-[4-(5-chloro-2-methylphenyl)piperazin-1-yl]-3-{3-[(phenylmethyl)oxy]phenyl}-1H-pyrazolo[3,4-d]pyrimidine] the IC50 (p70S6K) was 1000 to 10000 nM and the IC50 (AktK) was 1000 to 10000 nM.

Work on `Cc1ccc(Cl)cc1N1CCN(c2ncnc3[nH]nc(-c4ccc5c(c4)OCO5)c23)CC1` [Entry 337, 3-(1,3-benzodioxol-5-yl)-4-[4-(5-chloro-2-methyl-phenyl)piperazin-1-yl]-1H-pyrazolo[3,4-d]pyrimidine] yielded an IC50 (p70S6K) of 100 to 1000 nM and an IC50 (AktK) of 1000 to 10000 nM.

Molecule `Cc1ccc(Cl)cc1N1CCN(c2ncnc3[nH]nc(-c4cccs4)c23)CC1` [Entry 338, 4-[4-(5-chloro-2-methylphenyl)piperazin-1-yl]-3-(2-thienyl)-1H-pyrazolo[3,4-d]pyrimidine] has an IC50 (p70S6K) of less than 100 nM and an IC50 (AktK) of 1000 to 10000 nM.

With `Cc1ccc(Cl)cc1N1CCN(c2ncnc3[nH]nc(-c4cccc(N)c4)c23)CC1` [Entry 339, 3-{4-[4-(5-chloro-2-methylphenyl)piperazin-1-yl]-1H-pyrazolo[3,4-d]pyrimidin-3-yl}aniline] the IC50 (p70S6K) was 100 to 1000 nM and the IC50 (AktK) was 1000 to 10000 nM.

`Cc1ccc(Cl)cc1N1CCN(c2ncnc3[nH]nc(-c4cccc(C(=O)O)c4)c23)CC1` [Entry 340, 3-{4-[4-(5-chloro-2-methylphenyl)piperazin-1-yl]-d1H-pyrazolo[3,4-]pyrimidin-3-yl}benzoic acid] was tested, and the IC50 (p70S6K) was 1000 to 10000 nM and the IC50 (AktK) was 1000 to 10000 nM.

`Cc1ccc(-c2n[nH]c3ncnc(N4CCN(c5cc(Cl)ccc5C)CC4)c23)cc1` [Entry 341, 4-[4-(5-chloro-2-methylphenyl)piperazin-1-yl]-3-(4-methylphenyl)-1H-pyrazolo[3,4-d]pyrimidine] was tested, and the IC50 (p70S6K) was 1000 to 10000 nM and the IC50 (AktK) was 1000 to 10000 nM.

Molecule `CC(=O)Nc1ccc(-c2n[nH]c3ncnc(N4CCN(c5cc(Cl)ccc5C)CC4)c23)cc1` [Entry 342, N-(4-{4-[4-(5-chloro-2-methylphenyl)piperazin-1-yl]-1H-pyrazolo[3,4-d]pyrimidin-3-yl}phenyl)acetamide] has an IC50 (p70S6K) of 100 to 1000 nM and an IC50 (AktK) of 1000 to 10000 nM.

In the case of `CCc1n[nH]c2ncnc(N3CCCN(c4cccc(Cl)c4)CC3)c12` [Entry 343, 4-[4-(3-chlorophenyl)-1,4-diazepan-1-yl]-3-ethyl-1H-pyrazolo[3,4-d]pyrimidine], the IC50 (p70S6K) is reported as 100 to 1000 nM and the IC50 (AktK) is reported as no less than 10000 nM.

For `CCc1n[nH]c2ncnc(N3CC4CC3CN4c3cccc(Cl)c3)c12` (stereo not shown) [Entry 344, 4-[5-(3-chlorophenyl)-2,5-diazabicyclo[2.2.1]hept-2-yl]-3-ethyl-1H-pyrazolo[3,4-d]pyrimidine], the IC50 (p70S6K) was less than 100 nM and the IC50 (AktK) was 1000 to 10000 nM.

Source: patent publication US8076338B2, “Kinase modulators and methods of use” (Exelixis, Inc., priority 2004, dated 2011)
